Here are results for 3 compounds from US20110275583A1, “Synergistic active compound combinations” (priority 2010, published 2011).

Like-named read-outs stand apart in the source and are kept apart here.

Holding throughout (type): in vivo
In experiment [1] the test system is armyworm (Spodoptera frugiperda). Description: Spodoptera frugiperda larvae test (sprayed cabbage leaves). The settings on record: single active compound. An excerpt:
(§1) The expected action for a given combination of two active compounds can be calculated as follows, using the formula of S. R. Colby, Weeds 15 (1967), 20-22: • If • X is the kill rate, expressed as % of the untreated control, when employing active compound A at an application rate of m g/ha or in a concentration of in ppm, • Y is the kill rate, expressed as % of the untreated control, when employing active compound B at an application rate of n g/ha or in a concentration of n ppm and • E is the kill rate, expressed as % of the untreated control, when employing active compounds A and B at application rates of m and n g/ha or in a concentration of m and n ppm, • then
(§2) If the actual kill rate exceeds the calculated value, the action of the combination is superadditive, i.e. a synergistic effect is present. In this case, the actually observed kill rate must exceed the value calculated using the above formula for the expected kill rate (E).
(§3) Solvent: 78 parts by weight of acetone • • 1.5 parts by weight of dimethylformamide
(§4) Emulsifier: 0.5 part by weight of alkylaryl polyglycol ether
(§5) To produce a suitable preparation of active compound, 1 part by weight of active compound is mixed with the stated amounts of solvent and emulsifier, and the concentrate is diluted with emulsifier-containing water to the desired concentration.
Cabbage leaves (Brassica oleracea) are treated by being sprayed with the preparation of active compound of the desired concentration and are populated with the armyworm (Spodoptera frugiperda) while the leaves are still moist.
After the desired period of time, the kill in % is determined. 100% means that all caterpillars have been killed; 0% means that none of the caterpillars have been killed. The kill rates determined are entered, into Colby's formula.

For experiment [2], the system named is greenhouse red spider mite (Tetranychus urticae). Description: Tetranychus test, OP-resistant/spray treatment (bean leaf discs). The settings on record: single active compound.
Text: as §1, §2, §3, §4, §5
Discs of bean leaves (Phaseolus vulgaris) which are infested by all stages of the greenhouse red spider mite (Tetranychus urticae) are sprayed with an active compound preparation of the desired concentration.
After the desired period of time, the effect in % is determined. 100% means that all of the spider mites have been killed; 0% means that none of the spider mites have been killed.

For experiment [3], the system named is green peach aphid (Myzus persicae). Description: Myzus persicae test (spray treatment of infested cabbage leaves).
Text: as §1, §2, §3, §4, §5
Cabbage leaves (Brassica oleracea) which are heavily infested by the green peach aphid (Myzus persicae) are treated by spraying with the active compound preparation of the desired concentration.
After the desired period of time, the kill in % is determined. 100% means that all of the aphids have been killed; 0% means that none of the aphids have been killed. The kill rates determined are entered into Colby's formula.

The subject of experiment [4] is larvae of the mustard beetle (Phaedon cochleariae). Nature of the experiment: Phaedon cochleariae larvae test (sprayed cabbage leaves). The settings on record: single active compound.
Text: as §1, §2, §3, §4, §5
Cabbage leaves (Brassica oleracea) are treated by spraying with the active compound preparation of the desired concentration and populated with larvae of the mustard beetle (Phaedon cochleariae) while the leaves are still moist.
After the desired period of time, the kill in % is determined. 100% means that all beetle larvae have been killed; 0% means that none of the beetle larvae have been killed. The kill rates determined are entered into Colby's formula.

The mark [5] stands for this setting: Tetranychus urticae, foliar, 48 h, 2 d, read-out: Kill in % after 2 d.
[6] abbreviates: Tetranychus urticae, foliar, 144 h, 6 d, read-out: Kill in % after 6 d.
Where [7] appears, read: Myzus persicae, 24 h, after 1 d, read-out: Kill in % after 1d.
Where [8] appears, read: Myzus persicae, 144 h, single active compound, 6 d, read-out: Kill in % after 6 d.
Setting [9] is: Phaedon cochleariae, 48 h, 2 d, read-out: Kill in % after 2 d.
The mark [10] stands for this setting: Phaedon cochleariae, 144 h, 6 d, read-out: Kill in % after 6 d.

With `Fc1cncc(-c2ncc(-c3cccc(-c4ncccn4)n3)s2)c1` [compound of the formula (I-3)], the pest or weed control at 500 g/ha in experiment [1] (Spodoptera frugiperda, 48 h, 2 d, read-out: Kill in % after 2 d) is 0%; in experiment [1] (Spodoptera frugiperda, 144 h, 6 d, read-out: Kill in % after 6 d), 0%; in experiment [2] (setting [5]), 0%; in experiment [2] (setting [6]), 0%; in experiment [3] (Myzus persicae, 24 h, 500 g/ha, after 1 d, read-out: Kill in % after 1d), 0%; in experiment [4] (setting [9]), 0%. Also, the pest or weed control at 500 g/ha in experiment [4] (setting [10]) stood at 0%. Also, the pest or weed control at 20 g/ha in experiment [1] (Spodoptera frugiperda, 144 h, 20 g/ha, 6 d, read-out: Kill in % after 6 d) was 0%; in experiment [2] (setting [5]), 0%; in experiment [2] (setting [6]), 0%; in experiment [3] (setting [7]) it was 0%; in experiment [3] (setting [8]), 70%; in experiment [4] (Phaedon cochleariae, 48 h, 20 g/ha, 2 d, read-out: Kill in % after 2 d) it was 0%. Moreover, the pest or weed control at 100 g/ha amounted to 0% in experiment [1] (Spodoptera frugiperda, 144 h, 100 g/ha, 6 d, read-out: Kill in % after 6 d); 0% in experiment [2] (Tetranychus urticae, foliar, 144 h, 100 g/ha, 6 d, read-out: Kill in % after 6 d); 0% in experiment [3] (Myzus persicae, 24 h, 100 g/ha, after 1 d, read-out: Kill in % after 1d); 0% in experiment [4] (setting [9]); 0% in experiment [4] (setting [10]). Further, the pest or weed control at 4 g/ha was found to be 0% in experiment [2] (setting [5]); 0% in experiment [2] (setting [6]); 0% in experiment [3] (setting [7]); 70% in experiment [3] (setting [8]); 0% in experiment [4] (setting [9]); 0% in experiment [4] (setting [10]).

Take `CC1(C)C(C=C(Cl)Cl)C1C(=O)OC(C#N)c1ccc(F)c(Oc2ccccc2)c1` (stereo not drawn) [β-cyfluthrin, beta-cyfluthrin]: the pest or weed control at 0.16 g/ha in experiment [1] (Spodoptera frugiperda, 144 h, 0.16 g/ha, 6 d, read-out: Kill in % after 6 d) came to 0%. Also, the pest or weed control at 4 g/ha in experiment [2] (setting [6]) is 0%. In addition, in experiment [3] (Myzus persicae, 24 h, 0.032 g/ha, after 1 d, read-out: Kill in % after 1d), the pest or weed control at 0.032 g/ha is 0%. The pest or weed control at 0.8 g/ha in experiment [4] (Phaedon cochleariae, 144 h, 0.8 g/ha, 6 d, read-out: Kill in % after 6 d) turned out to be 33%.

In the case of emamectin benzoate, the “Kill in % after 2 d” value was found to be 0% in experiment [1] (0.16 g/ha, 2 d); 0% in experiment [2] (0.032 g/ha, 2 d); 50% in experiment [4] (0.8 g/ha, 2 d). Besides, the “Kill in % after 6 d” value in experiment [3] (0.16 g/ha, single active compound, 6 d) was 0%. In addition, the “Kill in % after 1d” value in experiment [3] (0.8 g/ha, after 1 d) amounted to 0%.
